These results are taken from patent publication EP0866709B1, “1,2,4-BENZOTRIAZINE OXIDES FORMULATIONS” (priority 1995, dated 1997).

The structures appear in SMILES notation. In brackets after ≈: the same amount, converted by molar mass. Like-named read-outs stand apart in the source and are kept apart here.

For data set [1], the system named is hypoxic cells. The note with it: cited from earlier work.
Data set [2] relates to hypoxic cells. The note with it: Human; in vitro; drug concentration required under aerobic vs. hypoxic conditions for equivalent cell killing; cited from earlier work.
The test system of data set [3] is FSaIIC fibrosarcoma. Put plainly: Tirapazamine alone in vivo. The arrangement: species or system mice. An excerpt: When given alone in vivo in mice, tirapazamine-in single doses-would be expected to produce a relatively small cell kill corresponding to the percentage of tumor cells which are hypoxic. A number of experiments have shown this to be the case, with cell kills typically less than one log (surviving fraction ≥ 1•10^-1). For example, the maximum cell kill observed following a single does was in the SCCVII tumor (surviving fraction = 5•10^-1), and only a small tumor growth delay of 3 days was produced in the FSaIIC fibrosarcoma.

The format of data set [4] is physicochemical. An excerpt:
[…]. The planar nature of the molecule would facilitate an ordered stacking with the crystal with intermolecular attractions (charge transfer interactions) between each plane via the nitrogen and oxygen of the N-oxide functions. A hydrated form of tirapazamine can exist where water molecules are hydrogen bonded to the oxygen components.

A short description of the next data set: in vivo. The note with it: mouse.
The test system of data set [5] is FSaIIC Murine Fibrosarcoma. The note with it: administered just before single-dose treatment with cyclophosphamide, carmustine or melphalan; cited from earlier work.
Data set [6] can be described thus: Solubility of tirapazamine in water and various vehicles. Format: physicochemical.
The subject of the next data set is HT 1080. Nature of the data set: In vitro cytotoxicity under aerobic or hypoxic conditions. The class given is cell-based. The note with it: Homo sapiens; HT 1080 (tumor); 1-hour incubation under hypoxic conditions.
The subject of a further data set is rat. Nature of the data set: Single and 2-week and 2-month multiple-dose studies. Format: in vivo. The note with it: each regimen (single, 2-week, 2-month multiple-dose). Here is the method:
(§1) Single and 2-week and 2-month multiple-dose studies were performed in the rat and the dog.

A further data set relates to dog. Described as above. The class given is in vivo. The note with it: each regimen (single, 2-week, 2-month multiple-dose). As to the method: as §1
Data set [7] in a line: Stress stability study, multiple autoclave cycles of 21 minutes at 121°C. Format: physicochemical. As to the method:
Stress studies were conducted using multiple autoclave cycles of 21 minutes at 121°C. […] A shift in the normal saline formulation pH occurred after eight autoclave cycles from 4.5 to 4.9, therefore formulations required some degree of buffering.

A further data set deals with AG 1522. Put plainly: In vitro cytotoxicity under aerobic or hypoxic conditions. The class given is cell-based. The note with it: Homo sapiens; AG 1522 (normal); 1-hour incubation under hypoxic conditions.
The subject of a further data set is mouse tumor models. Put plainly: Tirapazamine with radiation in vivo.
Data set [8] in a line: Stress stability on storage at 50°C and 70°C after a single autoclave cycle. Format: physicochemical. Here is the method:
Formulations were also stressed by storing at elevated temperatures of 50°C and 70°C after a single autoclave cycle of 21 minutes at 121°C. […] This instability was not apparent from multiple autoclave stressing.
The clinical formulation used in chemical studies discussed later was as follows: […]

For data set [9] the following is noted: phosphate buffer at pH 7.4; cited from earlier work.
The subject of another data set is mouse tumors. Put plainly: Tirapazamine alone in vivo, tumor cell kill. The arrangement: species or system mice. The note with it: given without radiation; typical. From the text: . When given alone in vivo in mice, tirapazamine-in single doses-would be expected to produce a relatively small cell kill corresponding to the percentage of tumor cells which are hypoxic. A number of experiments have shown this to be the case, with cell kills typically less than one log (surviving fraction ≥ 1•10^-1). For example, the maximum cell kill observed following a single does was in the SCCVII tumor (surviving fraction = 5•10^-1), and only a small tumor growth delay of 3 days was produced in the FSaIIC fibrosarcoma.
[…]. However, the lowest surviving fraction seen in four different mouse tumors was 5•10^-1, and down to 5•10^-2 in a fifth mouse tumor (RIF-1 tumor).

The next data set has as its system RIF-1. Put plainly: In vitro cytotoxicity under aerobic or hypoxic conditions. Format: cell-based. The note with it: Mus musculus; RIF-1 (tumor); 1-hour incubation under hypoxic conditions.
The test system of the next data set is CHO-HA-1. Described as above. Format: cell-based, Hamster. The note with it: CHO-HA-1 (normal); 1-hour incubation under hypoxic conditions.
Data set [10] relates to FSaIIC fibrosarcoma. Put plainly: Tirapazamine with chemotherapy in vivo. The note with it: tirapazamine 50 mg/kg IP added to cyclophosphamide (150 mg/kg IP), melphalan (10 mg/kg IP), or cisplatin (10 mg/kg IP). The arrangement: species or system mice.
Data set [11] can be described thus: Degradation on refluxing in 0.1 N sodium hydroxide. The class given is physicochemical.
The next data set deals with SCCVII. Put plainly: In vitro cytotoxicity under aerobic or hypoxic conditions. The class given is cell-based. The note with it: Mus musculus; SCCVII (tumor); 1-hour incubation under hypoxic conditions.
A further data set has as its system mouse SCCVII tumors. Nature of the data set: Tirapazamine with fractionated radiation in vivo. The note with it: multiple 0.08 mmol/kg (43 mg/m^2) doses given prior to each radiation fraction (2.5 Gy x 8).
The next data set deals with HCT-8. Nature of the data set: In vitro cytotoxicity under aerobic or hypoxic conditions. The class given is cell-based. The note with it: Homo sapiens; HCT-8 (tumor); 1-hour incubation under hypoxic conditions.
The test system of another data set is A549. The description is as above. The class given is cell-based. The note with it: Homo sapiens; A549 (tumor); 1-hour incubation under hypoxic conditions.
Setting [12] is: Rodent, in vitro, drug concentration required under aerobic vs. hypoxic conditions for equivalent cell killing.

For `COCC(O)Cn1ccnc1[N+](=O)[O-]` (centres unmarked) [Misonidazole], the “Hypoxic Cytotoxicity Ratio” value is recorded as 10-15 with hypoxic cells [1] (setting [12]) and 15 in the data set with hypoxic cells [2].
Turning to `CN(C)CCCNc1c2ccccc2nc2cccc([N+](=O)[O-])c12` [Nitracrine], the “Hypoxic Cytotoxicity Ratio” value in the data set on hypoxic cells [1] is reported as 7.
Take `CO[C@@]12[C@H](COC(N)=O)C3=C(C(=O)C(C)=C(N)C3=O)N1C[C@H]1[C@@H]2N1C` (some centres unmarked) [Porfiromycin]: the entries for the “Hypoxic Cytotoxicity Ratio” value with hypoxic cells [1] (setting [12]) and in the data set with hypoxic cells [2] were 5-10 and around 10, respectively.
As a reminder, the LD50 is the dose expected to kill half of the subjects tested. Broadly, the solubility is how much of the substance goes into solution per volume. By IC50 is commonly meant the concentration at which inhibition is half-maximal. A low value points to greater potency in that assay. With `Nc1n[n+]([O-])c2ccccc2[n+]1[O-]` [Tirapazamine, 1,2,4-benzotriazine-3-amine 1,4-dioxide], the “direct tumor cell killing” value in the data set on FSaIIC fibrosarcoma [3] (25 to 75 mg/kg IP, mice bearing the FSaIIC fibrosarcoma) is given as “some direct tumor cell killing was observed”. Also, the tumor growth delay with FSaIIC fibrosarcoma [3] (alone, single dose, FSaIIC fibrosarcoma) stood at 3 days. Moreover, the “partition coefficient (octanol/water)” value in data set [4] turned out to be 0.15. This compound also returned an LD50 in the data set “in vivo” of 101 mg/kg. Besides, the “dose enhancement of alkylating agents” value in data set [5] was “marked dose enhancement leading to synergistic cytotoxic effects on tumor cells”. Besides, the solubility worked out at 1230 µg/mL (≈ 6.9 mM) in data set [6] (1% benzyl alcohol : 10% ethanol : 89% water, v/v, 15 °C, aqueous with cosolvent or surfactant or cyclodextrin, 1% Benzyl alcohol: 10% ethanol:89% water, v/v, 15°C); 1330 µg/mL (≈ 7.47 mM) in data set [6] (Albumin 4.5% w/v, 20 °C, plasma or biological fluid); 1710 µg/mL (≈ 9.6 mM) in data set [6] (Albumin 20% w/v, 20 °C, plasma or biological fluid); 1830 µg/mL (≈ 10.3 mM) in [6] (Dimethylformamide 25% v/v in water, 15 °C, aqueous with cosolvent or surfactant or cyclodextrin); 930 µg/mL (≈ 5.22 mM) in [6] (Ethanol 10% v/v in water, 15 °C, aqueous with cosolvent or surfactant or cyclodextrin); 2320 µg/mL (≈ 13 mM) in data set [6] (Ethanol 50% v/v in water, 15 °C, aqueous with cosolvent or surfactant or cyclodextrin). Also, the solubility in data set [6] (Ethanol 65% v/v in water, 15 °C, aqueous with cosolvent or surfactant or cyclodextrin) is 2840 µg/mL (≈ 15.9 mM); in data set [6] (Ethanol 85% v/v in water, 15 °C, aqueous with cosolvent or surfactant or cyclodextrin), 1710 µg/mL (≈ 9.6 mM); in [6] (Ethanol, 15 °C, organic solvent or mixture), 470 µg/mL (≈ 2.64 mM); in data set [6] (Glycerol 50% v/v in water, 15 °C, aqueous with cosolvent or surfactant or cyclodextrin), 2930 µg/mL (≈ 16.4 mM); in [6] (Glycerol, 15 °C, organic solvent or mixture), 4590 µg/mL (≈ 25.8 mM); in data set [6] (Normal Saline, 15 °C, saline or isotonic), 850 µg/mL (≈ 4.77 mM). Also, the solubility came out at 1600 µg/mL (≈ 8.98 mM) in data set [6] (PEG 400 50% v/v in water, 15 °C, aqueous with cosolvent or surfactant or cyclodextrin); 5120 µg/mL (≈ 28.7 mM) in data set [6] (PEG 400, 15 °C, organic solvent or mixture); 1080 µg/mL (≈ 6.06 mM) in data set [6] (Pluronic F68 20% w/v, 15 °C, aqueous with cosolvent or surfactant or cyclodextrin); 950 µg/mL (≈ 5.33 mM) in [6] (Povidone (Kollidon 12PF) 10% w/v, 15 °C, aqueous with cosolvent or surfactant or cyclodextrin); 2580 µg/mL (≈ 14.5 mM) in data set [6] (Propylene glycol 50% v/v in water, 15 °C, aqueous with cosolvent or surfactant or cyclodextrin); 3270 µg/mL (≈ 18.4 mM) in data set [6] (Propylene glycol, 15 °C, organic solvent or mixture). In addition, the solubility in [6] (Tween 80 0.2% w/v, 15 °C, aqueous with cosolvent or surfactant or cyclodextrin) turned out to be 900 µg/mL (≈ 5.05 mM); in data set [6] (Tween 80 20% w/v, 15 °C, aqueous with cosolvent or surfactant or cyclodextrin), 1020 µg/mL (≈ 5.73 mM); in data set [6] (Water for Injections, 15 °C, water), 850 µg/mL (≈ 4.77 mM); in [6] (Water for Injections, 20 °C, water) it was 1430 µg/mL (≈ 8.03 mM); in data set [6] (citrate buffer 0.05 M pH 4 (isotonic), 15 °C, pH 4, aqueous buffer), 810 µg/mL (≈ 4.55 mM); in data set [6] (lactate buffer 0.1 M pH 4 (isotonic), 15 °C, pH 4, aqueous buffer, Lactate buffer O.1M pH 4 (isotonic)) it was 900 µg/mL (≈ 5.05 mM). In addition, in [6] (water, in water (text, temperature not given)), the solubility is around 810 µg/mL (≈ 4.55 mM). Besides, the IC50 in the data set on HT 1080 is 22 µM; in the data set on AG 1522, 13 µM; in the data set on RIF-1, 3000 nM; in the data set on CHO-HA-1, 5 µM; with SCCVII, 4 µM; with HCT-8, 10 µM. In addition, the IC50 in the data set with A549 turned out to be 15 µM. For the same compound, the “Clinical signs and symptoms” value in the data set on rat is “salivation, decreases in white blood cell measurements (including lymphocyte count in the dog), and decreases in red blood cell measurements”; in the data set on dog, “salivation, decreases in white blood cell measurements (including lymphocyte count in the dog), and decreases in red blood cell measurements”. In addition, the Stability entry in [7] (acidic solutions of normal saline or solutions buffered to pH 4 using 0.05M citrate or 0.1 M lactate buffer) is reported as “more stable”; in data set [7] (citrate buffer at pH 6), “unstable”; in data set [7] (phosphate buffer at pH 5.9) it was “unstable”; in data set [8] (0.7 mg/ml in 0.005M citrate buffer pH 4.0, 2 months at 50°C), “stable”; in data set [8] (0.7 mg/ml in 0.05M citrate buffer pH 4.0, 2 months at 50°C) it was “stable”; in data set [8] (0.7 mg/ml in 0.05M citrate buffer pH 4.0, at 70°C) it was “evidence of instability”. Moreover, the Stability result is on record as “most stable formulation” in data set [8] (0.05M citrate pH 4, compared with the other formulations stressed); “unstable” in [8] (lactate buffer, storage at 70°C after a single autoclave cycle); “stable” in data set [9]. The “antitumor effect of tirapazamine plus radiation versus additive effect” value in the data set on mouse tumor models (one study) is reported as “exceeds the additive effect of these two treatments”. For the same compound, the “enhancement of the antitumor activity of radiation, compared with etanidazole” value in the data set with mouse tumor models (one study) was “to a greater extent than did the hypoxic cell sensitizer etanidazole”. In the data set on mouse tumor models (single 0.30 mmol/kg (160mg/m^2) dose versus multiple 0.08 mmol/kg (43 mg/m^2) doses, fractionated radiation (2.5 Gy x 8)), the “effectiveness with fractionated radiation” value is given as “equally effective”. The “effectiveness with single-dose radiation” value in the data set with mouse tumor models (single 0.30 mmol/kg (160mg/m^2) dose with a single large (20 Gy) dose of radiation) was “effective”. The “antitumor activity of radiation (cell killing or tumor growth delay)” value with mouse tumor models (tumors FSaIIC, SCCVII, RIF-1, EMT6, and KHT, single- or multiple-dose schedule, single-dose or fractionated radiation) is given as “augments the antitumor activity of radiation”. For the same compound, in the data set with mouse tumors, the cell kill entry is reported as “less than 1 log”. In the data set with FSaIIC fibrosarcoma [10], the “increases in tumor growth delay” value was 1.6- to 5.3 fold. The Degradation entry in data set [11] is reported as “complete degradation occurs after refluxing for less than four hours”. Moreover, in the data set on mouse SCCVII tumors, the cures entry is given as “several cures”.
